Test results reported in patent publication US12282013B2, “Ex vivo methods of screening for, and characterizing, cardiac therapeutics using preloaded cardiac tissues” (NOVOHEART INTERNATIONAL LIMITED, priority 2018, dated 2025).

Experiments:
[1] = tested on: human ventricular cardiac tissue strip (hvCTS); assay: hvCTS contractile force assay, unstretched, 1-Hz pacing; format: cell-based; conditions: hvCTS paced at 1 Hz, increasing concentrations, responses described as blunted
Procedure: Seventy-two hours after dissociation, the hvCTS was made by mixing 1.3 million hESC-vCMs and 0.13 million human foreskin fibroblasts, together with 110 μl collagen gel comprising 1.67 mg/ml collagen and […] Matrigel. The cell mixture was then cast into a PDMS mold with two pillars and allowed to solidify for 2 hours in a 37° C., 5% CO2 incubator. Then, the cell mixture was fed with 7 ml DMEM medium (high glucose) supplemented with 10% newborn calf serum. Half of the medium was changed every 2 days.
On day 17 post-fabrication, human ventricular Cardiac Tissue Strips (hvCTS) were transferred from their molds and hooked to the force transducer unit and motor unit of an isolated muscle bath system (Aurora Scientific). The length of the hooked tissue was then adjusted to reach minimal developed tension, which was defined as the original length (Lo, or 0% Lmax) of the tissue. The hvCTS was then incubated in the bath at 37° C. for 10 minutes. Next, the hvCTS was electrically paced (at 5V/cm) at 1 Hz frequency, and stretched from 0 to 50% strain in 2.5% increments every 20 seconds. Recordings were made using Dynamic Muscle Control software (Aurora Scientific). The contractile parameters at each % strain, such as developed force, contractile rate and relaxation rate, were analyzed by Clampfit (Molecular Devices). The length with the maximum developed force was defined as Lmax. […]

[2] = tested on: human ventricular cardiac organoid chamber (hvCOC); assay: hvCOC pressure-volume / developed pressure assay with preload; format: cell-based; conditions: for area in the pressure-volume loops: absence of preload
Procedure: The hvCOC was made by a similar approach: Ten million hESC-vCMs and 1 million human foreskin fibroblasts were mixed with 1650 μl collagen gel (same relative composition as described above for hvCTS). The mixture was then cast into a 13-mm diameter cavity in a 2% agarose gel. A modified 6-Fr silicone balloon Foley catheter (Cook Medical) was then inflated and placed into the center of the bioreactor to form the inner boundary of the hvCOC. An 8 mm porous polyethylene ring (Fisher Scientific) and a 6 mm rubber ring were placed on top of the catheter to provide an hvCOC anchor. The polyethylene ring, rubber ring and the catheter were held by a metal tube with 3.9 mm outer diameter. The cell mixture was allowed to solidify for 2 hours in a 37° C., 5% CO2 incubator. Then, the solidified cell mixture was fed with 7 ml DMEM medium (high glucose) supplemented with 10% newborn calf serum. After 24 hours, the medium was aspirated and the agarose gel was removed. Twenty ml of medium was replenished and half of the medium was changed every 2 days. Further description of the hvCOC is provided in Example 5.
Human ventricular Cardiac Organoid Chamber (hvCOC) behavior was measured on day 10 post-fabrication. First, the catheter was deflated and removed. Then, the culture medium was replaced by phenol red-free DMEM (with 25 mM glucose and 25 mM HEPES). Rubber tubing was then filled with medium and used to connect the metal tube of the hvCOC apparatus to a medium tank. The hvCOC was electrically paced at 1.5 Hz (5V/cm) and the pressure-volume change resulting from the paced contractions was recorded for 30 seconds. Pressure was measured by a pressure sensor (Millar) placed inside the hvCOC, and associated area change of the hvCOC was captured by high-speed camera (Allied Vision). The medium tank level was then adjusted from 0 mm (relative to medium level of that in the hvCOC bioreactor), to 2.5, 5 and 7.5 mm above the medium level (representing 0, 2.5, 5 and 7.5 mm H2O preload). The measurements at all 4 preloads (0, 2.5, 5 and 7.5 mm H2O) were then repeated at each dose (0.01 and 0.1 μM) of levosimendan after a 5-minute incubation period.

SMILES	contractile force [1]	area in the pressure-volume loops ([2]; hvCOC)	increase in developed pressure ([2]; hvCOC, 5 mmH2O preload, 0.1 μM)	developed pressure, dose dependence ([2]; hvCOC, 7.5 mmH2O preload)	developed pressure ([2]; hvCOC, no preload (0 mmH2O), 1 μM)	response of hvCOC (developed pressure) ([2]; preload increased to 2.5 or 5 mmH2O)
CC(C)NCC(O)c1ccc(O)c(O)c1 (centres unmarked) [isoproterenol]	trend of increasing contractile force	increase in area in the pressure-volume loops	–	–	–	–
C[C@@H]1CC(=O)NN=C1c1ccc(NN=C(C#N)C#N)cc1 [levosimendan]	trend of increasing contractile force	increase in area in the pressure-volume loops	approximately 50%	did not show any significant dose-dependent increase	no increase in developed pressure	greatly enhanced the response
